Activity calls are given as the source filed them.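 The calls were made as follows: active = mean IC50 below 20 µM in each of the two panels, so potent in both; inactive = the rest.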

The target in this experiment is Neuropilin-1 (Homo sapiens) (UniProt O14786). Nature of the experiment: NRP-1 b1b2 CendR peptide binding inhibitors, dose response, biochemical, FP and AlphaScreen panel (AID 651650). The following applies: NRP-1 b1b2 / RPARPAR peptide binding, FP or AlphaScreen.
[1] abbreviates: AlphaScreen, run 1, individual panel run IC50.
Setting [2] is: FP, run 1, individual panel run IC50.
[3] abbreviates: FP, run 2, individual panel run IC50.

Chain of Neuropilin-1 (Homo sapiens) (O14786 whole entry, looked up): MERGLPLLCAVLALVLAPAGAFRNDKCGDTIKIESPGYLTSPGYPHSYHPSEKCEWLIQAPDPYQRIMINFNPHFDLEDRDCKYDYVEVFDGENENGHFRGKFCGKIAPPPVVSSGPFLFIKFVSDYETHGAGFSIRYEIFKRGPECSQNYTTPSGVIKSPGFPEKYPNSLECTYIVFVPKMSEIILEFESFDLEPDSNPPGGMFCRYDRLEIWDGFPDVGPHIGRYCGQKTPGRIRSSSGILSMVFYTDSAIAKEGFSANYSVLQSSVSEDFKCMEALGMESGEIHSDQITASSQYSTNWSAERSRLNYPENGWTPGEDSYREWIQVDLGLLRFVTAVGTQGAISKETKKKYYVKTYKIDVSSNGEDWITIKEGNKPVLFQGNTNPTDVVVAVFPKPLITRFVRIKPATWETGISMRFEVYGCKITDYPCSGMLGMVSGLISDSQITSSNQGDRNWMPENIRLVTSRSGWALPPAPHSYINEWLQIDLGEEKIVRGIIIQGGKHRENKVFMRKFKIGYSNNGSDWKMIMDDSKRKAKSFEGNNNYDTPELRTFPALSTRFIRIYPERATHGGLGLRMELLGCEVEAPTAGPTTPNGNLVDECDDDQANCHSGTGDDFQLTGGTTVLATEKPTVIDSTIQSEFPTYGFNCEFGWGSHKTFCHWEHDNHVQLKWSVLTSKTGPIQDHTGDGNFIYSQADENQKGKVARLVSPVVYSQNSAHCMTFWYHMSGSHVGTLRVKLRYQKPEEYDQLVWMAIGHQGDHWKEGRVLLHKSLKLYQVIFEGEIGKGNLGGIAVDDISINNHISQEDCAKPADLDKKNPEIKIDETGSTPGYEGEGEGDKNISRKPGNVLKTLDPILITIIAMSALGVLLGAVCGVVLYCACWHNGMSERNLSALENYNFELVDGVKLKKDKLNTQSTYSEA

`C=C1CCN([C@@H](CC(C)C)C(=O)NCc2ccccc2)S(=O)(=O)c2ccccc21`: the IC50 is, setting by setting: (AlphaScreen, mean of runs) > 100 µM (inactive); under setting [1], over 100 µM; (FP, mean of runs) > 95 µM (inactive); under setting [2], over 95 µM; under setting [3], over 95 µM.

On to `Cc1ccccc1-n1ncc2c1CC(C)(C)CC2NC(=O)c1ccncc1` (stereo not given), for which the IC50 is, setting by setting: (AlphaScreen, mean of runs) > 100 µM (inactive); under setting [1], over 100 µM; (FP, mean of runs) > 95 µM (inactive); under setting [2], over 95 µM; under setting [3], over 95 µM.

As for `CCn1cc(C(=O)N2CCN(C(=O)c3ccco3)CC2)c2cc(OC)c(OC)cc2c1=O`, the IC50 result (AlphaScreen, mean of runs) was “inactive”. Besides, the IC50 under setting [1] worked out at 25.4 µM; the IC50 (FP, mean of runs) is > 95 µM (inactive); the IC50 under setting [2] is over 95 µM; the IC50 under setting [3] is over 95 µM.

On to `CCc1ccc(OC(=O)CN2C(=O)c3ccccc3C2=O)cc1`, for which the IC50 entry (AlphaScreen, mean of runs) is “inactive”. Also, the IC50 under setting [1] is 32 µM; the IC50 (FP, mean of runs) is > 95 µM (inactive); the concentration for half-maximal inhibition (IC50) under setting [2] is over 95 µM; the IC50 under setting [3] is over 95 µM.

As for `O=C1C=CC(=O)C2C1C1(Cl)C(Cl)=C(Cl)C2(Cl)C1(Cl)Cl` (stereo not given), the IC50 (AlphaScreen, mean of runs) was > 100 µM (inactive); the concentration for half-maximal inhibition (IC50) under setting [1] was over 100 µM; the IC50 (FP, mean of runs) was > 95 µM (inactive); the concentration for half-maximal inhibition (IC50) under setting [2] was over 95 µM; the 50% inhibitory concentration (IC50) under setting [3] is over 95 µM.

For `C=CCOc1ccc(C2/C(=C(\O)c3c(C)[nH]c(C(=O)OC)c3C)C(=O)C(=O)N2CCN(C)C)cc1` (stereo not given), the IC50 by setting is: (AlphaScreen, mean of runs) > 100 µM (inactive); under setting [1], over 100 µM; (FP, mean of runs) > 95 µM (inactive); under setting [2], over 95 µM; under setting [3], over 95 µM.

For `O=C(CCn1c(=O)c2cccn2c2cccnc21)NCc1cccc(Cl)c1`, the IC50 (AlphaScreen, mean of runs) is > 100 µM (inactive); the IC50 under setting [1] is over 100 µM; the IC50 (FP, mean of runs) was > 95 µM (inactive); the concentration for half-maximal inhibition (IC50) under setting [2] was over 95 µM; the half-inhibitory concentration (IC50) under setting [3] is over 95 µM.

Consider `CC1CCC(NC(=O)CSc2nncn2C)CC1` (stereo not given), for which the IC50 reads like this: (AlphaScreen, mean of runs) > 100 µM (inactive); under setting [1], over 100 µM; (FP, mean of runs) > 95 µM (inactive); under setting [2], over 95 µM; under setting [3], over 95 µM.

Turning to `O=C(NC1CC1)c1ccc(COc2ccc(F)cc2)o1`, the IC50 runs as follows: (AlphaScreen, mean of runs) > 100 µM (inactive); under setting [1], over 100 µM; (FP, mean of runs) > 95 µM (inactive); under setting [2], over 95 µM; under setting [3], over 95 µM.

Consider `CCCCOc1ccc(C(=O)N/C(=C/C=C/c2ccccc2)C(=O)NCCCO)cc1`, for which the IC50 by setting is: (AlphaScreen, mean of runs) > 100 µM (inactive); under setting [1], over 100 µM; (FP, mean of runs) > 95 µM (inactive); under setting [2], over 95 µM; under setting [3], over 95 µM.

With `CC1CCC(NC(=O)C2CCC(CNS(=O)(=O)c3cccc4cccnc34)CC2)CC1` (stereo not given), the IC50 was > 100 µM (inactive) (AlphaScreen, mean of runs); over 100 µM under setting [1]; > 95 µM (inactive) (FP, mean of runs); over 95 µM under setting [2]; over 95 µM under setting [3].

`CCn1c(N)c(C(=O)NCc2cccnc2)sc1=S`: the IC50 was 13 µM (AlphaScreen, mean of runs); 13 µM under setting [1]; over 95 µM under setting [2]; 30.1 µM under setting [3]. For the setting “FP, mean of runs”, the IC50 entry is “inactive”.

Regarding `COc1ccc(C(=O)N2CCC(C(=O)NCc3ccccn3)CC2)cc1`, the IC50 is > 100 µM (inactive) (AlphaScreen, mean of runs); over 100 µM under setting [1]; > 95 µM (inactive) (FP, mean of runs); over 95 µM under setting [2]; over 95 µM under setting [3].

Take `Cc1csc(NC(C)c2nc3cc(C(F)(F)F)ccc3n2CCCO)n1` (stereo not given): the half-maximal inhibitory concentration (IC50) reads like this: (AlphaScreen, mean of runs) 8.6 µM; under setting [1], 8.6 µM; (FP, mean of runs) > 95 µM (inactive); under setting [2], over 95 µM; under setting [3], over 95 µM.

For `CSCCC(NC(=O)c1ccc(Cl)cc1Cl)C(=O)NCC(c1cccs1)N(C)C` (stereo not given), the IC50 is, setting by setting: (AlphaScreen, mean of runs) > 100 µM (inactive); under setting [1], over 100 µM; (FP, mean of runs) > 95 µM (inactive); under setting [2], over 95 µM; under setting [3], over 95 µM.

Consider `COC(=O)c1cccc(NC(=S)NCCC2=CCCCC2)c1`, for which the IC50 runs as follows: (AlphaScreen, mean of runs) > 100 µM (inactive); under setting [1], over 100 µM; (FP, mean of runs) > 95 µM (inactive); under setting [2], over 95 µM; under setting [3], over 95 µM.

As to `O=C(NCc1ccccc1)C(c1cccnc1)N(C(=O)c1ccccn1)c1ccccc1F` (stereo not given), the IC50 by setting is: (AlphaScreen, mean of runs) > 100 µM (inactive); under setting [1], over 100 µM; (FP, mean of runs) > 95 µM (inactive); under setting [2], over 95 µM; under setting [3], over 95 µM.

For the compound `COc1ccc(NC(=O)CN2CCN(c3c(C)cc(C)cc3C)CC2)cc1`, the IC50 was > 100 µM (inactive) (AlphaScreen, mean of runs); over 100 µM under setting [1]; > 95 µM (inactive) (FP, mean of runs); over 95 µM under setting [2]; over 95 µM under setting [3].

Turning to `COc1ccccc1N1CCN(C(=O)C2c3ccccc3Oc3ccccc32)CC1`, the IC50 was > 100 µM (inactive) (AlphaScreen, mean of runs); over 100 µM under setting [1]; > 95 µM (inactive) (FP, mean of runs); over 95 µM under setting [2]; over 95 µM under setting [3].

As for `COc1ccccc1C(=O)NC(=O)CSc1nncn1C`, the IC50 was > 100 µM (inactive) (AlphaScreen, mean of runs); over 100 µM under setting [1]; > 95 µM (inactive) (FP, mean of runs); over 95 µM under setting [2]; over 95 µM under setting [3].

Regarding `COc1ccc(-c2[nH]ncc2CN(C)CCc2c(C)n[nH]c2C)c(F)c1`, the IC50 (AlphaScreen, mean of runs) is > 100 µM (inactive); the concentration for half-maximal inhibition (IC50) under setting [1] was over 100 µM; the IC50 (FP, mean of runs) is > 95 µM (inactive); the IC50 under setting [2] is over 95 µM; the IC50 under setting [3] was over 95 µM.

Turning to `C=C(C)C1CC=C(C)/C(=N\NC(=O)CNc2ccccc2OC)C1` (stereo not given), the IC50 runs as follows: (AlphaScreen, mean of runs) > 100 µM (inactive); under setting [1], over 100 µM; (FP, mean of runs) > 95 µM (inactive); under setting [2], over 95 µM; under setting [3], over 95 µM.

As to `OCCNc1ncnc2ccc(Br)cc12`, the IC50 result (AlphaScreen, mean of runs) is “inactive”. For the same compound, the IC50 is, setting by setting: under setting [1], 45.2 µM; (FP, mean of runs) > 95 µM (inactive); under setting [2], over 95 µM; under setting [3], over 95 µM.

On to `CCOc1ccccc1N1CCN(C(=O)c2ccncc2)CC1`, for which the IC50 was > 100 µM (inactive) (AlphaScreen, mean of runs); over 100 µM under setting [1]; > 95 µM (inactive) (FP, mean of runs); over 95 µM under setting [2]; over 95 µM under setting [3].

`CCOc1ccc(S(=O)(=O)N2CCN(C(=O)c3sccc3C)CC2)cc1`: the IC50 is 14.5 µM (AlphaScreen, mean of runs); 14.5 µM under setting [1]; > 95 µM (inactive) (FP, mean of runs); over 95 µM under setting [2]; over 95 µM under setting [3].

Regarding `CC(=NN(Cc1ccccc1)c1ccccc1)c1ccccc1`, under “AlphaScreen, mean of runs”, the IC50 result was “inactive”. Besides, the 50% inhibitory concentration (IC50) under setting [1] was found to be 41.3 µM; the IC50 (FP, mean of runs) was > 95 µM (inactive); the IC50 under setting [2] was over 95 µM; the IC50 under setting [3] is over 95 µM.

Take `O=C(OCn1nnc2ccccc2c1=O)c1ccc(Br)o1`: the IC50 is > 100 µM (inactive) (AlphaScreen, mean of runs); over 100 µM under setting [1]; > 95 µM (inactive) (FP, mean of runs); over 95 µM under setting [2]; over 95 µM under setting [3].

Turning to `CCOc1ccc(-n2c(Cc3cc(=O)[nH]c(=O)[nH]3)nnc2SC(C)C)cc1`, the IC50 was > 100 µM (inactive) (AlphaScreen, mean of runs); over 100 µM under setting [1]; > 95 µM (inactive) (FP, mean of runs); over 95 µM under setting [2]; over 95 µM under setting [3].

Turning to `COc1cccc(OCC(=O)NNC(=S)Nc2ccc(Cl)cc2Cl)c1`, the IC50 was > 100 µM (inactive) (AlphaScreen, mean of runs); over 100 µM under setting [1]; > 95 µM (inactive) (FP, mean of runs); over 95 µM under setting [2]; over 95 µM under setting [3].

Regarding `O=C(c1cccc(F)c1)N1CCN(c2ccc([N+](=O)[O-])c(N3CCCCC3)c2)CC1`, the IC50 by setting is: (AlphaScreen, mean of runs) > 100 µM (inactive); under setting [1], over 100 µM; (FP, mean of runs) > 95 µM (inactive); under setting [2], over 95 µM; under setting [3], over 95 µM.

In the case of `O=C(Cn1ccc(NC(=O)OCc2ccccc2)nc1=O)NCCCn1ccnc1`, the IC50 runs as follows: (AlphaScreen, mean of runs) > 100 µM (inactive); under setting [1], over 100 µM; (FP, mean of runs) > 95 µM (inactive); under setting [2], over 95 µM; under setting [3], over 95 µM.

In the case of `O=Cc1ccc(-c2ccccc2C(=O)O)o1`, the IC50 is > 100 µM (inactive) (AlphaScreen, mean of runs); over 100 µM under setting [1]; > 95 µM (inactive) (FP, mean of runs); over 95 µM under setting [2]; over 95 µM under setting [3].

`C=C1CCN(C(C(=O)OC)C(C)C)S(=O)(=O)c2ccc(F)cc21` (stereo not given): the IC50 by setting is: (AlphaScreen, mean of runs) > 100 µM (inactive); under setting [1], over 100 µM; (FP, mean of runs) > 95 µM (inactive); under setting [2], over 95 µM; under setting [3], over 95 µM.

As for `NC(=O)C1=C[C@H](c2ccc(Br)cc2)C[C@H](OCc2ccc(CO)cc2)O1`, the IC50 was > 100 µM (inactive) (AlphaScreen, mean of runs); over 100 µM under setting [1]; > 95 µM (inactive) (FP, mean of runs); over 95 µM under setting [2]; over 95 µM under setting [3].

With `C=CCn1c(SCC(=O)Nc2ncc(Cc3ccc(Br)cc3)s2)nnc1-c1ccncc1`, the IC50 is > 100 µM (inactive) (AlphaScreen, mean of runs); over 100 µM under setting [1]; > 95 µM (inactive) (FP, mean of runs); over 95 µM under setting [2]; over 95 µM under setting [3].
